# Like-named read-outs stand apart in the source and are kept apart here.
# Key:
# [1] = test system: IL-17A release in human PBMC; experiment: IL-17A release, human PBMC, anti-CD3 + anti-CD28; type: cell-based
# Excerpt: Inhibition of RORγ by PCCR-1 was also estimated in a functional assay by measuring the inhibition of Th17 dependent cytokine IL-17A release in human peripheral blood mononuclear cells (PBMCs), mouse splenocytes and canine PBMC stimulated with their respective anti-CD3 and anti-CD28 antibodies.
# (§1) Human whole blood from healthy subjects were procured from Clinical Research Unit, Sanpada. Clinical Research Center Glenmark (Plot No. D, 508, Turbhe, TTC Industrial Area, MIDC, Sanpada, Navi Mumbai, Maharashtra 400705, India). PBMCs were isolated using heparinized blood with Ficoll Histopaque. Briefly, the cells were seeded in 96-well plate pre-coated with human anti-CD3 mAb (10 µg/mL), post 30 min of compound treatment cells were stimulated with human anti-CD28 mAb (2 µg/mL). After 72 h of culture, the supernatant was collected for Th1/Th2 cytokines; IFN-γ, IL-2, IL-4 and IL-10 and measured by ELISA. For Th17 polarization assay, the following cytokine cocktail was used: IL-1β (10 ng/ml), IL-23(10 ng/ml), IL-6 (50 ng/ml), TGF-β1 (3 ng/ml), IL-2 (20U/ml) and supernatants were used for measuring IL-17 and IL-22 by ELISA.
# [2] = test system: IL-17 release in mouse peritoneal neutrophils; experiment: IL-17 release, mouse peritoneal neutrophils, LPS; type: cell-based; settings: Neutrophil, n = 2, read-out: potency, IL-17 release inhibition
# Method: The peritoneal neutrophils or macrophages were isolated from C57BL/6 male mice or BALB/c female mice (6–8 wks; 18–22 g) injected with 3% or 4% thioglycollate broth. After 4 h or 4 days, RPMI medium was injected into the peritoneal cavity of mouse and peritoneal lavage was collected. The lavage was pooled and spun at 800 rpm for 10 min. The pellet was re-suspended in 1X Gey’s solution for 5 min followed by PBS wash. In case of neutrophils, the isolated cells were seeded in 48 well plate for 1.5 h. After 1.5 h, the supernatant containing peritoneal neutrophils were collected and centrifuged at 2000 rpm for 10 min and the pellet were re-suspended in 2% RPMI. In case of isolated peritoneal macrophages, the cells were seeded in 48 well plate for 3–4 h followed by PBS wash. Both the neutrophils and macrophages were treated with PCCR-1 in 2% RPMI for 1 h followed by stimulation with 10 µg/ml or 5 µg/ml of LPS for 18 h or 24 h. The supernatant collected for IL-17 estimation by ELISA.
# hFXR = experiment: Nuclear receptors: functional assay, hFXR antagonism; type: cell-based, human; settings: nuclear receptors: functional assays
# Excerpt: (§2) Based on the homology of the ligand binding domains, 3 different isoforms of ROR (hRORα, hRORβ and hRORγ) are reported. Small variations in the LBD regions possibly lead to differences in competitive binding between the nuclear receptors of the ROR isoforms (Fig. 1b). Similar to the assessment of RORγ binding assay, TR-FRET binding assays were also used to assess the affinity of PCCR-1 for other ROR isoforms. […] This was reconfirmed in cellular functional assays for the selected isoforms and nuclear receptors using Gal4 DBD with luciferase reporter system from Indigo (PA, USA). […] In addition, both cellular agonist and antagonist effects as well as for enzyme activity were evaluated with a known reference compound for each target, using a radiolabeled method (Eurofins Cerep, France, Table 1).
# Kinases (~ 40 in no) = experiment: Kinase panel (~ 40); type: biochemical; design: key: NSE No significant effect; V wk very weak (very low-level agonist activity seen with mPPARγ); settings: at 10 µM
# Excerpt: as §2
# [3] = test system: IL-22 release in human PBMC; experiment: IL-22 release, human PBMC under Th17 polarization conditions; type: cell-based; settings: human PBMC under Th17 polarization condition
# Method: An increase in the levels of Th17 dependent cytokine in the peripheral blood of COPD patients as compared to the Th1 and Th2 dependent cytokines has been well documented in a subset of COPD patients. A comparative study was performed under TCR activating conditions to evaluate the potencies of PCCR-1 for inhibition across Th1, Th2 and Th17 dependent cytokines using hPBMCs.
# as §1
# [4] = test system: IL-17 release from COPD patient PBMCs; experiment: IL-17 release, PBMC from COPD patients; type: cell-based; settings: Homo sapiens, TCR stimulated, n = 16, read-out: IL-17 IC50, COPD patient's sample: PBMC
# Method: Whole blood and BAL samples from COPD patients were obtained from Multispecialty hospital, Mumbai post approval from ethics committee and informed consent of patients. 30–40 mL Broncho alveolar lavage (BALf) was collected per patient and stored in ice. Blood was collected in heparin vaccutainer as per approved protocol. Both the samples were processed within 2 h of collection. BALF was passed through 100-µm and 40-µm cell strainer to remove debris and mucus, the samples were centrifuged and the cells were re-suspended in RPMI 1640 complete medium. PBMCs from blood were isolated using Histopaque-1077 by density gradient centrifugation. Isolated BAL cells and PBMCs were seeded in 96 well coated with 10 µg/ml anti-CD3 and 2 µg/ml anti-CD2. Cells were further treated with different concentration of test compound for 60 min followed by stimulation with 20 µg/ml anti-CD28 and incubated for 48–72 h. The supernatant was used for estimating IL-17 by ELISA.
smiles,measurement,setting,value
CCn1c(C(C)(C)Oc2ccc(F)cc2F)nc2cc(NC(=O)Cc3ccc(S(=O)(=O)CC)cc3)ccc21 [PCCR-1],IC50,"[1]; TCR activating conditions, comparative Th1/Th2/Th17 study (Fig. 3A), read-out: hIL-17 (IL-17A) IC50",94.3 nM
same,IC50,"[1]; anti-CD3 + anti-CD28, n = 24 (Fig. 1D), read-out: Cellular activity: Human IC50, IL-17A release",117 nM
same,IC50,[2],245 nM
same,hFXR (antagonism),hFXR,~10 µM
same,Kinases (~ 40 in no),Kinases (~ 40 in no),NSE at 10 µM
same,ceiling effect for IL-22 release inhibition,[3],60%
same,IC50,"[3]; n = 2, read-out: hIL-22 IC50",43.8 nM
same,IC50,[4],336 nM

# From publication PMC9130233, “An inhibitor of RORγ for chronic pulmonary obstructive disease treatment” (Scientific Reports, 2022)
